Literature values, collected in patent publication US20220096467A1, “COMBINATION OF SELECTIVE ALPHA-ADRENERGIC RECEPTOR AGONIST OR AN ANTICHOLINERGIC AGENT AND LIPOIC ACID AND USES THEREOF” (Cellix Bio Private Limited, priority 2019, published 2022).

Tested on: eyes of patients who had open angle glaucoma
Details: 150 mg of ALA per day, controls received only topical medical therapy

In the case of O=C(O)CCCCC1CCSS1 (stereo not drawn) [ALA, alpha lipoic acid], the “Eyes in the study with enhanced color visual fields and visual sensitivity versus the controls” value is listed as 45-47%.
